# Active and inactive are the calls of the source. The calls are words filed in the database; no cut-off is given here.
# Tests used:
# Format in all cases: functional
# [1] = test system: Staphylococcus aureus; assay: Antibacterial activity against Staphylococcus aureus at 50 ug/ml after 24 hrs by agar well diffusion method
# [2] = test system: Fusarium verticillioides; assay: Antifungal activity against Fusarium moniliforme at 75 ug/ml after 48 hrs by agar well diffusion method
# [3] = test system: Bacillus subtilis; assay: Antibacterial activity against Bacillus subtilis at 50 ug/ml after 24 hrs by agar well diffusion method
# [4] = test system: Klebsiella pneumoniae; assay: Antibacterial activity against Klebsiella pneumoniae at 25 ug/ml after 24 hrs by agar well diffusion method
# [5] = test system: Aspergillus niger; assay: Antifungal activity against Aspergillus niger at 100 ug/ml after 48 hrs by agar well diffusion method
# [6] = test system: Aspergillus niger; assay: Antifungal activity against Aspergillus niger at 75 ug/ml after 48 hrs by agar well diffusion method
# [7] = test system: Escherichia coli; assay: Antibacterial activity against Escherichia coli at 75 ug/ml after 24 hrs by agar well diffusion method; settings: read-out: DIZ
# [8] = test system: Aspergillus niger; assay: Antifungal activity against Aspergillus niger at 50 ug/ml after 48 hrs by agar well diffusion method
# [9] = test system: Staphylococcus aureus; assay: Antibacterial activity against Staphylococcus aureus at 100 ug/ml after 24 hrs by agar well diffusion method
# [10] = test system: Aspergillus niger; assay: Antifungal activity against Aspergillus niger at 25 ug/ml after 48 hrs by agar well diffusion method
# [11] = test system: Escherichia coli; assay: Antibacterial activity against Escherichia coli at 100 ug/ml after 24 hrs by agar well diffusion method; settings: read-out: DIZ
# [12] = test system: Staphylococcus aureus; assay: Antibacterial activity against methicillin resistant Staphylococcus aureus MRSA090 at 100 ug/ml after 24 hrs by agar well diffusion method; settings: MRSA090, 24 h, read-out: DIZ
# [13] = test system: Bacillus subtilis; assay: Antibacterial activity against Bacillus subtilis at 25 ug/ml after 24 hrs by agar well diffusion method
# [14] = test system: Fusarium oxysporum; assay: Antifungal activity against Fusarium oxysporum at 75 ug/ml after 48 hrs by agar well diffusion method
# [15] = test system: Klebsiella pneumoniae; assay: Antibacterial activity against Klebsiella pneumoniae at 100 ug/ml after 24 hrs by agar well diffusion method; settings: for zone of inhibition at 100 µg/mL: read-out: DIZ
# [16] = test system: Fusarium verticillioides; assay: Antifungal activity against Fusarium moniliforme at 50 ug/ml after 48 hrs by agar well diffusion method
# [17] = test system: Klebsiella pneumoniae; assay: Antibacterial activity against Klebsiella pneumoniae at 75 ug/ml after 24 hrs by agar well diffusion method; settings: for zone of inhibition at 75 µg/mL: read-out: DIZ
# [18] = test system: Staphylococcus aureus; assay: Antibacterial activity against methicillin resistant Staphylococcus aureus MRSA090 at 50 ug/ml after 24 hrs by agar well diffusion method; settings: MRSA090, 24 h, read-out: DIZ
# [19] = test system: Staphylococcus aureus; assay: Antibacterial activity against methicillin resistant Staphylococcus aureus MRSA090 at 25 ug/ml after 24 hrs by agar well diffusion method; settings: MRSA090, 24 h, read-out: DIZ
# [20] = test system: Fusarium verticillioides; assay: Antifungal activity against Fusarium moniliforme at 100 ug/ml after 48 hrs by agar well diffusion method
# [21] = test system: Staphylococcus aureus; assay: Antibacterial activity against Staphylococcus aureus at 75 ug/ml after 24 hrs by agar well diffusion method
# [22] = test system: Fusarium oxysporum; assay: Antifungal activity against Fusarium oxysporum at 50 ug/ml after 48 hrs by agar well diffusion method
# [23] = test system: Staphylococcus aureus; assay: Antibacterial activity against methicillin resistant Staphylococcus aureus MRSA090 at 75 ug/ml after 24 hrs by agar well diffusion method; settings: MRSA090, 24 h, read-out: DIZ
# [24] = test system: Bacillus subtilis; assay: Antibacterial activity against Bacillus subtilis at 100 ug/ml after 24 hrs by agar well diffusion method
# [25] = test system: Staphylococcus aureus; assay: Antibacterial activity against Staphylococcus aureus at 25 ug/ml after 24 hrs by agar well diffusion method
# [26] = test system: Klebsiella pneumoniae; assay: Antibacterial activity against Klebsiella pneumoniae at 50 ug/ml after 24 hrs by agar well diffusion method
# [27] = test system: Escherichia coli; assay: Antibacterial activity against Escherichia coli at 50 ug/ml after 24 hrs by agar well diffusion method; settings: read-out: DIZ
# [28] = test system: Fusarium verticillioides; assay: Antifungal activity against Fusarium moniliforme at 25 ug/ml after 48 hrs by agar well diffusion method
# [29] = test system: Fusarium oxysporum; assay: Antifungal activity against Fusarium oxysporum at 25 ug/ml after 48 hrs by agar well diffusion method
# [30] = test system: Escherichia coli; assay: Antibacterial activity against Escherichia coli at 25 ug/ml after 24 hrs by agar well diffusion method; settings: read-out: DIZ
# [31] = test system: Bacillus subtilis; assay: Antibacterial activity against Bacillus subtilis at 75 ug/ml after 24 hrs by agar well diffusion method
# [32] = test system: Fusarium oxysporum; assay: Antifungal activity against Fusarium oxysporum at 100 ug/ml after 48 hrs by agar well diffusion method
SMILES,diameter of the inhibition zone (DIZ) [1],diameter of the inhibition zone (DIZ) [2],diameter of the inhibition zone (DIZ) [4],diameter of the inhibition zone (DIZ) [5],diameter of the inhibition zone (DIZ) [6],zone of inhibition at 75 µg/mL [7] [mm],diameter of the inhibition zone (DIZ) [8],diameter of the inhibition zone (DIZ) [9],zone of inhibition at 100 µg/mL [11] [mm],zone of inhibition at 100 µg/mL [12] [mm],diameter of the inhibition zone (DIZ) [16],zone of inhibition at 50 µg/mL [18] [mm],zone of inhibition at 25 µg/mL [19] [mm],diameter of the inhibition zone (DIZ) [20],diameter of the inhibition zone (DIZ) [21],zone of inhibition at 75 µg/mL [23] [mm],diameter of the inhibition zone (DIZ) [25],zone of inhibition at 50 µg/mL [27] [mm],diameter of the inhibition zone (DIZ) [28],zone of inhibition at 25 µg/mL [30] [mm],other results
Cc1cccc2nc(N/N=C/c3ccc(O)cc3Br)sc12,inactive,inactive,inactive,inactive,inactive,11,inactive,inactive,16,17,inactive,11,7,inactive,inactive,14,inactive,9,inactive,6,zone of inhibition at 50 µg/mL ([3]; read-out: DIZ): 11 mm; diameter of the inhibition zone (DIZ) [10]: inactive; zone of inhibition at 25 µg/mL ([13]; read-out: DIZ): 7 mm; diameter of the inhibition zone (DIZ) [14]: inactive; zone of inhibition at 100 µg/mL [15]: 14 mm; zone of inhibition at 75 µg/mL [17]: 11 mm; diameter of the inhibition zone (DIZ) [22]: inactive; zone of inhibition at 100 µg/mL ([24]; read-out: DIZ): 15 mm; diameter of the inhibition zone (DIZ) [26]: inactive; diameter of the inhibition zone (DIZ) [29]: inactive; zone of inhibition at 75 µg/mL ([31]; read-out: DIZ): 13 mm; diameter of the inhibition zone (DIZ) [32]: inactive
Cc1cccc2nc(N/N=C/c3ccncc3)sc12,inactive,inactive,,,,16,,inactive,19,17,inactive,10,7,inactive,inactive,14,inactive,14,inactive,7,diameter of the inhibition zone (DIZ) [3]: inactive; zone of inhibition at 25 µg/mL ([4]; read-out: DIZ): 5 mm; zone of inhibition at 100 µg/mL ([5]; read-out: DIZ): 16 mm; zone of inhibition at 75 µg/mL ([6]; read-out: DIZ): 13 mm; zone of inhibition at 50 µg/mL ([8]; read-out: DIZ): 11 mm; zone of inhibition at 25 µg/mL ([10]; read-out: DIZ): 6 mm; diameter of the inhibition zone (DIZ) [13]: inactive; diameter of the inhibition zone (DIZ) [14]: inactive; zone of inhibition at 100 µg/mL [15]: 18 mm; zone of inhibition at 75 µg/mL [17]: 14 mm; diameter of the inhibition zone (DIZ) [22]: inactive; diameter of the inhibition zone (DIZ) [24]: inactive; zone of inhibition at 50 µg/mL ([26]; read-out: DIZ): 9 mm; diameter of the inhibition zone (DIZ) [29]: inactive; diameter of the inhibition zone (DIZ) [31]: inactive; diameter of the inhibition zone (DIZ) [32]: inactive
Cc1ccc(/C=N/Nc2nc3cccc(C)c3s2)cc1,inactive,inactive,inactive,inactive,inactive,17,inactive,,22,17,inactive,10,6,inactive,inactive,14,inactive,14,inactive,10,diameter of the inhibition zone (DIZ) [3]: inactive; zone of inhibition at 100 µg/mL ([9]; read-out: DIZ): 10 mm; diameter of the inhibition zone (DIZ) [10]: inactive; diameter of the inhibition zone (DIZ) [13]: inactive; zone of inhibition at 75 µg/mL ([14]; read-out: DIZ): 14 mm; diameter of the inhibition zone (DIZ) [15]: inactive; diameter of the inhibition zone (DIZ) [17]: inactive; zone of inhibition at 50 µg/mL ([22]; read-out: DIZ): 11 mm; diameter of the inhibition zone (DIZ) [24]: inactive; diameter of the inhibition zone (DIZ) [26]: inactive; zone of inhibition at 25 µg/mL ([29]; read-out: DIZ): 7 mm; diameter of the inhibition zone (DIZ) [31]: inactive; zone of inhibition at 100 µg/mL ([32]; read-out: DIZ): 17 mm

# Reference: ChEMBL document CHEMBL4020788, “Synthesis, SAR and molecular docking studies of benzo[d]thiazole-hydrazones as potential antibacterial and antifungal agents” (2017)
